Source: PubChem BioAssay (NCI)
Where “and” joins values, the source holds several entries; their conditions need not be identical. Identical values can stand only once.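 Exposure lasted 48 hours, with cells grown in 96-well plates and compounds tested at five concentrations. Here, GI50 denotes the concentration required for 50% inhibition of growth. TGI: concentration producing complete growth inhibition.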

Columns and labels:
Assay in all cases: NCI-60 cell line screen, 48 h
MALME-3M melanoma = system: MALME-3M melanoma
NCI-H460 lung = system: NCI-H460 lung
TK-10 renal = system: TK-10 renal
NCI/ADR-RES ovarian = system: NCI/ADR-RES ovarian
SF-539 CNS = system: SF-539 CNS
CAKI-1 renal = system: CAKI-1 renal
M14 melanoma = system: M14 melanoma
MCF7 breast = system: MCF7 breast
OVCAR-5 ovarian = system: OVCAR-5 ovarian
HCT-116 colon = system: HCT-116 colon

| Structure (SMILES) | GI50 (MALME-3M melanoma) [µM] | TGI (MALME-3M melanoma) | GI50 (NCI-H460 lung) | TGI (NCI-H460 lung) | GI50 (TK-10 renal) [µM] | TGI (TK-10 renal) | GI50 (NCI/ADR-RES ovarian) [µM] | TGI (NCI/ADR-RES ovarian) [µM] | GI50 (SF-539 CNS) | TGI (SF-539 CNS) | GI50 (CAKI-1 renal) | TGI (CAKI-1 renal) | GI50 (M14 melanoma) [µM] | TGI (M14 melanoma) | GI50 (MCF7 breast) [µM] | TGI (MCF7 breast) [µM] | GI50 (OVCAR-5 ovarian) | TGI (OVCAR-5 ovarian) | GI50 (HCT-116 colon) | TGI (HCT-116 colon) |
| --- | --- | --- | --- | --- | --- | --- | --- | --- | --- | --- | --- | --- | --- | --- | --- | --- | --- | --- | --- | --- |
| CNc1ncc2cc(Oc3ccc(F)cc3F)c(=O)n(C)c2n1 | > 25 | > 25 µM | > 25 µM | > 25 µM | > 23.1 | > 25 µM | > 25 | > 25 | > 25 µM | > 25 µM | > 25 µM | > 25 µM | > 25 | > 25 µM | > 25 | > 25 | > 25 µM | > 25 µM | > 25 µM | > 25 µM |
| c1ccc(/C(=N\Nc2ccc3ccccc3n2)c2ccccn2)cc1 | 0.546 | 5.76 µM | 0.414 µM | 11.3 µM | 0.372 | 5.31 µM | 0.387 | 14.2 | 0.682 µM | 4.57 µM | 0.0927 µM | 3.95 µM | 0.484 | 4.44 µM | 0.907 | 11.5 | 0.81 µM | 43 µM | 0.436 µM | 5.62 µM |
| c1ccc2c(CN3CCC(C4CCN(Cc5cccc6ccccc56)CC4)CC3)cccc2c1 | – | 4.87 µM and 14.6 µM | – | 52.4 µM and 46.8 µM | – | 42.8 µM and > 31.6 µM | – | > 100 | 3.63 µM and 8.99 µM | 9.53 µM and 18 µM | 3.7 µM and 34.3 µM | 21.2 µM and > 100 µM | – | 3.59 µM and 3.89 µM | – | > 73.7 | 22.3 µM and > 100 µM | > 100 µM | 7.28 µM and 16.3 µM | 21.1 µM and > 58.2 µM |
| Cn1c2ccccc2c2[nH]c3ccccc3c(=O)c21 | – | > 100 µM | – | > 100 µM | – | > 100 µM | – | > 100 | – | > 100 µM | – | > 100 µM | – | > 100 µM | – | > 100 | – | > 100 µM | – | > 100 µM |
| Nc1ccccc1C#C/C=C\C#Cc1ccccc1F | 2.62 | 13.9 µM | 6.17 µM | 21.2 µM | 6.42 | 25.6 µM | 2.47 | 6.73 | 3.82 µM | 15.7 µM | 2.89 µM | 9.36 µM | 5.39 | 18.3 µM | 3.2 | > 100 | 9.31 µM | 23.9 µM | 3.52 µM | 16.1 µM |
| COc1cc2c3cc1Oc1c(OC)c(OC)cc4c1C(Cc1ccc(cc1)Oc1cc(ccc1O)CC3N(C)CC2)N(C)CC4 (stereo unspecified) | – | 27 µM and 26 µM | 14.5 µM and 4.72 µM | 32.6 µM and 17.3 µM | – | 45 µM and 25.9 µM | – | 60.5 | 11.4 µM and 1.56 µM | 23.6 µM and 3.81 µM | – | 42.9 µM and 31.4 µM | – | 4.27 µM and 4.79 µM | – | 20.8 | – | 67.4 µM and 29.6 µM | – | 21 µM and > 100 µM |
| NCCSC(C[N+](=O)[O-])c1ccccc1Cl (stereo unspecified) | 16.3 | 36.7 µM | 11.8 µM | 32 µM | 5.59 | 19 µM | 9.85 | > 23.4 | 2.42 µM | 5.49 µM | 9.88 µM | 24.3 µM | 2.14 | 6.01 µM | 1.13 | 3.2 | 4.66 µM | 10.4 µM | 1.18 µM | 3.08 µM |
| CN(C)N=Nc1nn(C(=O)Nc2ccc(Cc3ccccc3)cc2)c2ccccc12 | 6.6 | > 100 µM | 0.111 µM | > 100 µM | > 100 | > 100 µM | 0.957 | > 100 | 1.46 µM | > 23.7 µM | 1.12 µM | > 100 µM | 0.168 | > 100 µM | 0.387 | > 100 | > 21.6 µM | > 100 µM | > 100 µM | > 100 µM |
| O=C1NC(c2ccccc2)N=C2Oc3ccccc3C=C12 (stereo unspecified) | – | > 100 µM | – | > 43.7 µM | – | > 100 µM | – | > 31.3 | – | 17.6 µM | – | 0.42 µM | – | > 31.6 µM | – | > 100 | – | > 100 µM | – | > 100 µM |
| COc1ccc(CN=C(N)N=C(N)N)cc1OC | 365 | > 1000 µM | > 1000 µM | > 1000 µM | > 1000 | > 1000 µM | > 1000 | > 1000 | > 1000 µM | > 1000 µM | > 1000 µM | > 1000 µM | > 1000 | > 1000 µM | 855 | > 1000 | > 1000 µM | > 1000 µM | > 1000 µM | > 1000 µM |
| C=C(C)C(=O)O[C@H]1CC2=CC(CC(C)=C[C@H]3OC(=O)C(=C)C13)OC2=O (stereo partly specified) | – | 40.7 µM | – | > 100 µM | – | 22.6 µM | – | > 100 | – | > 100 µM | – | 34.4 µM | – | > 100 µM | – | 49.1 | – | > 100 µM | – | 24.2 µM |
| COc1ccc(OC)c(/C=N/N=C2\C(=O)Nc3c(Cl)cc(Cl)cc32)c1 | – | > 100 µM | – | > 100 µM | – | > 100 µM | – | > 100 | – | > 100 µM | – | > 100 µM | – | > 100 µM | – | > 100 | – | > 100 µM | – | > 100 µM |
| CCc1nc(N)nc(N)c1C#CC(C)c1cc(-c2ccnc(C)c2)c2oc(C)nc2c1 (stereo unspecified) | 2.11 | 14.4 µM | < 0.01 µM | 4.26 µM | 0.126 | 12 µM | 0.0146 | 10.1 | < 0.01 µM | 2.4 µM | < 0.0109 µM | 5.58 µM | < 0.01 | 5.69 µM | 0.0118 | 11.9 | < 0.0103 µM | 13.6 µM | < 0.01 µM | 10.9 µM |
| Oc1ccc(O)c2c1C1(Cl)C(Cl)=C(Cl)C2(Cl)C1(Cl)Cl | 2.31 | 9.95 µM | 2.86 µM | 8.94 µM | 4.96 | 27.7 µM | 3.03 | 9.53 | 4.38 µM | 18.7 µM | 2.44 µM | 8.31 µM | 3.03 | 12 µM | 6.4 | > 100 | 12.6 µM | 33.8 µM | 3.07 µM | 12.8 µM |
| COc1cc(-c2oc3c(OC)c(O)cc(O)c3c(=O)c2OC)ccc1O | – | 97.5 µM | – | > 93.5 µM | – | 69.6 µM | – | > 83.5 | – | > 50.2 µM | – | 51.5 µM | – | > 31.3 µM | – | > 75.6 | – | 78.7 µM | – | > 100 µM |
| O=C1OC(OC/C(Br)=C(/Br)COC2OC(=O)C(Cl)=C2Cl)C(Cl)=C1Cl (stereo unspecified) | – | 21.2 µM | – | 39.4 µM | – | 27 µM | – | 36.9 | – | 36.7 µM | – | 7.68 µM | – | 17.3 µM | – | 30.9 | – | 33 µM | – | 10 µM |
